From article PMC12406204 (Journal of Medicinal Chemistry, 2025)
≈ marks a conversion by molar mass, not a printed value.

Legend:
[1] = Kinetic solubility (nephelometry); assay type: physicochemical; conditions: 37 °C, aqueous buffer, kinetic from dmso stock; 1:99 DMSO/PSB buffer; PBS pH 7
Protocol: The solubility of selected compounds was evaluated by following a previously described method. A 10 mM stock solution of the compound was serially diluted in 100% DMSO and 2.5 μL of this solution was added to a 384-well UV-transparent plate (Greiner) containing 47.5 μL of PBS (pH = 7). The plate was incubated at 37 °C for 4 h and the light scattering was measured in a Nephelostar plus reader (BMG LABTECH). The data was fitted to a segmented linear regression for measuring the compound solubility.

[2] = Human microsomal stability; assay type: in vitro ADME; conditions: for microsomal stability % remanent: Human, sampling time 60 min; for microsomal CLint / half-life: human, liver microsomes, pH 7.4; for half-life: read-out: microsomal stability t1/2
Protocol: The human microsomal stability of selected compounds was evaluated by following a previously described method. The human microsomes employed were purchased from Tebu-Xenotech. The compound was incubated with the microsomes at 37 °C in a 50 mM phosphate buffer (pH = 7.4) containing 3 mM MgCl2, 1 mM NADP, 10 mM glucose-6-phosphate and 1 U/mL glucose-6-phosphate-dehydrogenase. Samples (75 μL) were taken from each well at 0, 10, 20, 40, and 60 min and transferred to a plate containing 4 °C 75 μL acetonitrile and 30 μL of 0.5% formic acid in water were added for improving the chromatographic conditions. The plate was centrifuged ([…], 30 min) and supernatants were taken and analyzed in an UPLC-MS/MS (Xevo-TQD, Waters) by employing a BEH C18 column and an isocratic gradient of 0.1% formic acid in water: 0.1% formic acid acetonitrile (60:40). The metabolic stability of the compounds was calculated from the logarithm of the remaining compounds at each of the time point studied.

[3] = Mouse microsomal stability; assay type: in vitro ADME; conditions: for microsomal stability % remanent: Mouse, sampling time 60 min; for microsomal CLint / half-life: mouse, microsomes, pH 7.4; for half-life: read-out: microsomal stability t1/2
[4] = tested on: SH-SY5Y cells; experiment: Neurite length in differentiated SH-SY5Y cells transfected with MAPT P301L + APP V717I; assay type: cell-based, human; conditions: for neuroprotective effect in presence of CB2R antagonist SR144528: 100 and 10 nM, SR144528 1 μM
Description: Finally, to further validate these effects, a neuron-like in vitro model using differentiated SH-SY5Y cells was employed (Figure ). […] To simulate neurodegenerative conditions, cells were transiently transfected with expression plasmids encoding the MAPT P301L and APP V717I mutations. The MAPT P301L mutation promotes pathological tau hyperphosphorylation and aggregation, leading to microtubule destabilization, impaired axonal transport, and neurite retraction. , Meanwhile, the APP V717I mutation increases the production of long, aggregation-prone amyloidogenic peptides, disrupting cellular homeostasis through oxidative stress and cytoskeletal disorganization. ,
SH-SY5Y human neuroblastoma-derived cells (ECACC, 94030304) were cultured and differentiated in black 384-well plates (Revvity, 6057300). Plates were treated with laminin (1:500 dilution in PBS; Merck, L2020) by adding 25 μL per well and incubated for 2 h at room temperature. Subsequently, plates were washed three times with PBS. Cells were seeded at a density of 6.6 × 10^3 cells per well (in 50 μL) in culture medium. The base culture medium consisted of RPMI-1640 (Gibco, 61870) supplemented with 2% (v/v) fetal bovine serum (FBS; Merck, F7524), 1% (v/v) penicillin-streptomycin (P/S; Merck, P0781), and 0.1% (v/v) gentamicin (Merck, G1397).
Differentiation was initiated 24 h after plating. The culture medium was replaced with a differentiation medium composed of RPMI-1640 supplemented with 2% (v/v) FBS, 1% (v/v) P/S, 0.1% (v/v) gentamicin, and 10 μM all-trans retinoic acid (RA; Merck, R2625). Medium changes were performed every 3 days, and the plates were kept covered with aluminum foil to protect retinoic acid from light exposure. Six days later, cells were transfected with expression plasmids encoding MAPT P301L and APP V717I mutations employing Lipofectamine LTX (Thermo Fisher, 15338100) at a 1:2 proportion in Opti-MEM (Gibco, 11058-021) following the instructions of the manufacturer. After 6 h, the transfection medium was replaced with a differentiation medium composed of RPMI-1640, B27 supplement (1:50; Gibco, 17504), 1% (v/v) P/S, 0.1% (v/v) gentamicin, and 100 nM GLP-1 (Merck, G9416). 24 h later, test compounds were added using an Echo 650T acoustic dispenser (Labcyte) from a 10 mM stock solution in DMSO (Merck, D8418).
48 h after compound dispensation, cells were fixed with 4% paraformaldehyde (50 μL per well, Santa Cruz BT, sc-281692) for 20 min at 4 °C. Wells were then washed twice with HBSS (50 μL per wash, Merck, H8264) and incubated with 50 μL of blocking buffer for 30 min at room temperature. The blocking buffer consisted of HBSS supplemented with 5% BSA (w/v) (Merck, 10775835001) and 0.1% (v/v) Triton X-100 (Merck, T8787). After blocking, cells were incubated with an antibeta-tubulin antibody conjugated to Alexa Fluor 488 (1:500; BD Biosciences, 558605) and Draq5 nuclear stain (2.5 μM; Abcam, ab108410) diluted in blocking buffer. After incubation in the dark at room temperature, wells were washed once with 50 μL of HBSS and subsequently filled with 50 μL of blocking buffer prior to imaging.Images were acquired using an Operetta CLS High Content Screening System (Revvity) equipped with a 20× water-immersion objective. Fluorescent signals were detected using specific excitation/emission filter settings for each fluorophore: Alexa Fluor 488 (λex = 460–490 nm; λem = 500–550 nm) and Draq5 (λex = 615–645 nm; λem = 655–760 nm). For each well, nine nonoverlapping fields were captured under identical acquisition settings. Neurite length and complexity were quantified using Harmony software (version 4.9.2137.273; Revvity), applying a predefined analysis algorithm optimized for β-tubulin immunostaining. For each experiment, data were normalized to the average neurite length measured in the double-transfected condition (MAPT P301L + APP V717I) treated with vehicle, which was assigned a reference value of 100%. […]

[5] = target: CB1R (Homo sapiens, UniProt P21554); experiment: CB1R Gi protein-mediated cAMP inhibition assay; assay type: cell-based; conditions: for functional selectivity ratio: CB1R vs CB2R cAMP EC50
Chain of CB1R (P21554 whole entry): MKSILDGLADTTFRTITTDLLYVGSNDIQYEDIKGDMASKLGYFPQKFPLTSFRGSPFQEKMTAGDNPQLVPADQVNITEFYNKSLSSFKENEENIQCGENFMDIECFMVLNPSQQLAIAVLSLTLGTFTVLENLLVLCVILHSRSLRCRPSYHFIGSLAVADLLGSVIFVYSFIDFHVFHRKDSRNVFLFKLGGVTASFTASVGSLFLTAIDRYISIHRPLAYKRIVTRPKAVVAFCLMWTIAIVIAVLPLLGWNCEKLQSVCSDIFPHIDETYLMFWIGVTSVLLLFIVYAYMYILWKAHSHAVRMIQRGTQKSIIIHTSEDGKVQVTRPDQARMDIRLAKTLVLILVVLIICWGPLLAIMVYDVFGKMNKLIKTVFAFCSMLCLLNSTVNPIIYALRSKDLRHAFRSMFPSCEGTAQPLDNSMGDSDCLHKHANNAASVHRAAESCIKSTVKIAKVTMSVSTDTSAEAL
Description: Given their excellent CB2R functional activity and ability to cross the blood–brain barrier, compounds 18p and 18o were selected for CB1R functional evaluation to assess potential risks of CB1R-mediated central effects. […] Full CB1R dose–response curves are provided in the Supporting Information (Figure S6).

| Structure (SMILES) | solubility at 4 h [1] [µM] | microsomal stability % remanent [2] [%] | microsomal CLint [2] [µL/min/mg] | half-life [2] [min] | microsomal stability % remanent [3] [%] | microsomal CLint [3] [µL/min/mg] | half-life [3] [min] | protective effect against neurite shortening ([4]; 1 nM) | protective effect against neurite shortening ([4]; 10 nM to 1 μM) | neuroprotective effect in presence of CB2R antagonist SR144528 [4] | EC50 [5] [µM] | Emax [5] [%] | functional selectivity ratio [5] |
| --- | --- | --- | --- | --- | --- | --- | --- | --- | --- | --- | --- | --- | --- |
| NC(=O)[C@@H]1CCCCN1C(=O)c1cn(CC2CCCCC2)c2ccccc12 [18e] | 40.1 (≈ 14.7 µg/mL) | 15.9 | 67.3 | 19.4 | 22.3 | 54.3 | 21.8 | neither compound produced a statistically significant effect | significant concentration-dependent protective effect | reversed | – | – | – |
| NC(=O)[C@@H]1CCCCN1C(=O)c1nn(Cc2ccc(F)cc2)c2ccccc12 [18o] | 43.7 (≈ 16.6 µg/mL) | 59.6 | 11.8 | 50.9 | 28.4 | 26.1 | 28 | neither compound produced a statistically significant effect | significant concentration-dependent protective effect | reversed | 1.07 ± 0.057 | 36 | > 1780 |
| NC(=O)[C@H]1CCCCN1C(=O)c1nn(Cc2ccc(F)cc2)c2ccccc12 [18p] | – | – | – | – | – | – | – | – | – | – | 0.755 ± 0.031 | 45 | 111 |
